Where two headings read alike, the source gives them in different places.
Legend:
[1] = test system: RNA synthesis in B16-F10 melanoma cells; assay: Inhibition of macromolecule synthesis: RNA (14C-uridine incorporation); type: cell-based, murine; settings: 4 hours + 60 minutes label
Procedure: (§3) B16-F10 cells (10⁵ cells/ml) were incubated with test materials at 37°C for 4.5 hours (for DNA synthesis) or 4 hours (for RNA and protein syntheses). Labelled precursor, ³H-thymidine, ¹⁴C-uridine or ³H-leucine was added to the culture and further incubated for 30 minutes (for DNA) or 60 minutes (for RNA and protein). After washing with chilled 5% trichloroacetic acid solution, the radioactivity incorporated into the acid-insoluble fraction of the tumor cells was determined by a liquid scintillation counter. Actinomycin D was used as a reference compound.

[2] = test system: DNA synthesis in B16-F10 melanoma cells; assay: Inhibition of macromolecule synthesis: DNA (3H-thymidine incorporation); type: cell-based, murine; settings: 4.5 hours + 30 minutes label
Procedure: as §3

[3] = test system: B16-F10 (murine melanoma)
Procedure: (§1) BU-3983T was tested for in vitro cytotoxicity against murine and human cell lines and for in vivo antitumor activity in mice. B16-F10 (murine melanoma) and Moser (human colorectal carcinoma) cells were grown to the logarithmic phase in the enriched Eagle minimum essential medium supplemented with fetal calf serum (FCS, 10%) and kanamycin (60 µg/ml), and HCT-116 (human colon carcinoma) were in McCoy's 5A medium supplemented with FCS (10%), penicillin (100 U/ml) and streptomycin (100 µg/ml). B16-F10, Moser and HCT-116 cells were harvested and implanted into wells of a 96-well microtiter plate at the inoculum sizes of 1.5 x 10⁴, 3 x 10⁴ and 3 x 10⁴ cells/ml, respectively. They were incubated with test materials at 37°C in humidified atmosphere of 5% CO₂ and 95% air for 72 hours. The cytotoxicity against tumor cells was determined colorimetrically at 540 nm after staining viable cells.

[4] = test system: HCT-116 (human colon carcinoma); settings: HCT-116 cells, 72 hours
Procedure: as §1

[5] = test system: Moser (human colorectal carcinoma); settings: Moser cells, 72 hours
Procedure: as §1

[6] = test system: B16 melanoma; assay: In vivo antitumor activity in tumor-bearing mice, B16 melanoma (ip); settings: for Body weight change on day 5 / MST (Median survival time) / T/C: B16 melanoma ip, BDF₁ mice; for T/C: significant if T/C ≧ 125%
Procedure: (§2) In vivo antitumor activity of BU-3983T was examined using tumor-bearing mice. Male BDF₁ mice were intraperitoneally inoculated with 0.5 ml of 10% melanotic melanoma B16 brei, and female CDF₁ mice were intraperitoneally inoculated with 0.4 ml of diluted ascitic fluid containing 10⁶ lymphocytic leukemia P388 cells or 10⁵ lymphoid leukemia L1210 cells. Mitomycin C was used as a reference compound. Test compounds were intraperitoneally administered to the mice by the following treatment schedules: once a day on day 1 only (Q1D x 1), on days 1, 5 and 9 (Q4D x 3) or on days 1 to 9 (Q1D x 9). […]

[7] = test system: P388 leukemia; assay: In vivo antitumor activity in tumor-bearing mice, P388 leukemia (ip); settings: for Body weight change on day 4 / MST (Median survival time) / T/C: P388 leukemia ip, CDF₁ mice, Q1D x 1; for T/C: significant if T/C ≧ 125%
Procedure: as §2

[8] = test system: Protein synthesis in B16-F10 melanoma cells; assay: Inhibition of macromolecule synthesis: protein (3H-leucine incorporation); type: cell-based, murine
Procedure: as §3

[9] = Antimicrobial activity (no method given)
[10] = test system: L1210 leukemia; assay: In vivo antitumor activity in tumor-bearing mice, L1210 leukemia (ip); settings: for Body weight change on day 4 / MST (Median survival time) / T/C: L1210 leukemia ip, CDF₁ mice, Q1D x 1; for T/C: significant if T/C ≧ 125%
Procedure: as §2

For CCC(C)CC(C)CC(C)/C=C(\C)C1OC(O)(C(C)(O)C(=O)NC2C(=O)N3NCCCC3C(=O)N(O)CC(=O)N(C)CC(=O)NCC(=O)N(C)CC(=O)OC2C(C)C)CCC1OC (centres unmarked) [BU-3983T], the “IC₅₀ RNA” value [1] was 0.29 µg/mL, the “IC₅₀ DNA” value [2] was 0.26 µg/mL and the solubility (in acetonitrile, methanol, chloroform, dimethyl sulfoxide and dimethylformamide) was “readily soluble”. For the same compound, the solubility (in n-butanol, ethanol and ethyl acetate) was “slightly soluble”, the solubility (in n-hexane and water) was “practically insoluble” and the IC₅₀ ([3]; B16-F10 cells, 72 hours) was 0.004 µg/mL. The “times more potent against B16-F10 than against HCT-116” value ([3]; ratio of IC₅₀ values, B16-F10 vs HCT-116) was 10 times, the “times more potent against B16-F10 than against Moser” value ([3]; ratio of IC₅₀ values, B16-F10 vs Moser) was 100 times and the IC₅₀ [4] was 0.04 µg/mL. For the same compound, the IC₅₀ [5] was 0.4 µg/mL, the “Body weight change on day 5” value ([6]; 0.031 mg/kg/day ip, Q1D x 9) was “+1.0 g” and the “MST (Median survival time)” value ([6]; 0.031 mg/kg/day ip, Q1D x 9) was 16.0 days. The T/C ([6]; 0.031 mg/kg/day ip, Q1D x 9) was 110%, the “Body weight change on day 5” value ([6]; 0.063 mg/kg/day ip, Q1D x 9) was “+1.0 g” and the “MST (Median survival time)” value ([6]; 0.063 mg/kg/day ip, Q1D x 9) was 17.5 days. The T/C ([6]; 0.063 mg/kg/day ip, Q1D x 9) was 121%, the “Body weight change on day 5” value ([6]; 0.063 mg/kg/day ip, Q4D x 3) was “+0.5 g” and the “MST (Median survival time)” value ([6]; 0.063 mg/kg/day ip, Q4D x 3) was 14.0 days. For the same compound, the T/C ([6]; 0.063 mg/kg/day ip, Q4D x 3) was 108%, the “Body weight change on day 5” value ([6]; 0.13 mg/kg/day ip, Q1D x 1) was “+0.5 g” and the “MST (Median survival time)” value ([6]; 0.13 mg/kg/day ip, Q1D x 1) was 14.0 days. For the same compound, the T/C ([6]; 0.13 mg/kg/day ip, Q1D x 1) was 108%, the “Body weight change on day 5” value ([6]; 0.13 mg/kg/day ip, Q1D x 9) was -0.3 g and the “MST (Median survival time)” value ([6]; 0.13 mg/kg/day ip, Q1D x 9) was 19.0 days. The T/C ([6]; 0.13 mg/kg/day ip, Q1D x 9) was 131*² %, the “Body weight change on day 5” value ([6]; 0.13 mg/kg/day ip, Q4D x 3) was “+0.0 g” and the “MST (Median survival time)” value ([6]; 0.13 mg/kg/day ip, Q4D x 3) was 15.0 days. The T/C ([6]; 0.13 mg/kg/day ip, Q4D x 3) was 115%, the “Body weight change on day 5” value ([6]; 0.25 mg/kg/day ip, Q1D x 1) was 0.0 g and the “MST (Median survival time)” value ([6]; 0.25 mg/kg/day ip, Q1D x 1) was 17.0 days. The T/C ([6]; 0.25 mg/kg/day ip, Q1D x 1) was 131*² %, the “Body weight change on day 5” value ([6]; 0.25 mg/kg/day ip, Q1D x 9) was -1.0 g and the “MST (Median survival time)” value ([6]; 0.25 mg/kg/day ip, Q1D x 9) was 19.5 days. The T/C ([6]; 0.25 mg/kg/day ip, Q1D x 9) was 138*² %, the “Body weight change on day 5” value ([6]; 0.25 mg/kg/day ip, Q4D x 3) was 0.0 g and the “MST (Median survival time)” value ([6]; 0.25 mg/kg/day ip, Q4D x 3) was 16.0 days. For the same compound, the T/C ([6]; 0.25 mg/kg/day ip, Q4D x 3) was 123%, the “Body weight change on day 5” value ([6]; 0.5 mg/kg/day ip, Q1D x 1) was -1.0 g and the “MST (Median survival time)” value ([6]; 0.5 mg/kg/day ip, Q1D x 1) was 17.0 days. For the same compound, the T/C ([6]; 0.5 mg/kg/day ip, Q1D x 1) was 131*² %, the “Body weight change on day 5” value ([6]; 0.5 mg/kg/day ip, Q1D x 9) was -4.0 g and the “MST (Median survival time)” value ([6]; 0.5 mg/kg/day ip, Q1D x 9) was 20.0 days. For the same compound, the T/C ([6]; 0.5 mg/kg/day ip, Q1D x 9) was 148*² %, the “Body weight change on day 5” value ([6]; 0.5 mg/kg/day ip, Q4D x 3) was -0.5 g and the “MST (Median survival time)” value ([6]; 0.5 mg/kg/day ip, Q4D x 3) was 19.0 days. The T/C ([6]; 0.5 mg/kg/day ip, Q4D x 3) was 146*² %, the “Body weight change on day 5” value ([6]; 1 mg/kg/day ip, Q1D x 1) was -4.0 g and the “MST (Median survival time)” value ([6]; 1 mg/kg/day ip, Q1D x 1) was 16.5 days. For the same compound, the T/C ([6]; 1 mg/kg/day ip, Q1D x 1) was 127*² %, the “MST (Median survival time)” value ([6]; 1 mg/kg/day ip, Q1D x 9) was “Tox” and the T/C ([6]; 1 mg/kg/day ip, Q1D x 9) was “Tox”. For the same compound, the “Body weight change on day 5” value ([6]; 1 mg/kg/day ip, Q4D x 3) was -2.3 g, the “MST (Median survival time)” value ([6]; 1 mg/kg/day ip, Q4D x 3) was 17.5 days and the T/C ([6]; 1 mg/kg/day ip, Q4D x 3) was 135*² %. For the same compound, the “Body weight change on day 5” value ([6]; 2 mg/kg/day ip, Q1D x 1) was -4.8 g, the “MST (Median survival time)” value ([6]; 2 mg/kg/day ip, Q1D x 1) was 21.0 days and the T/C ([6]; 2 mg/kg/day ip, Q1D x 1) was 162*² %. For the same compound, the “Body weight change on day 5” value ([6]; 2 mg/kg/day ip, Q4D x 3) was -4.0 g, the “MST (Median survival time)” value ([6]; 2 mg/kg/day ip, Q4D x 3) was 18.0 days and the T/C ([6]; 2 mg/kg/day ip, Q4D x 3) was 138*² %. For the same compound, the “Body weight change on day 5” value ([6]; 4 mg/kg/day ip, Q1D x 1) was -5.3 g, the “MST (Median survival time)” value ([6]; 4 mg/kg/day ip, Q1D x 1) was 19.0 days and the T/C ([6]; 4 mg/kg/day ip, Q1D x 1) was 146*² %. The “Body weight change on day 5” value ([6]; 8 mg/kg/day ip, Q1D x 1) was -5.3 g, the “MST (Median survival time)” value ([6]; 8 mg/kg/day ip, Q1D x 1) was 17.5 days and the T/C ([6]; 8 mg/kg/day ip, Q1D x 1) was 135*² %. The “maximum T/C” value ([6]; B16 melanoma, by various treatment schedules (Q1D x 1, Q4D x 3, Q1D x 9), ip) was 146-162%, the “Body weight change on day 4” value ([7]; 0.25 mg/kg/day ip) was “+0.3 g” and the “MST (Median survival time)” value ([7]; 0.25 mg/kg/day ip) was 11.0 days. For the same compound, the T/C ([7]; 0.25 mg/kg/day ip) was 110%, the “Body weight change on day 4” value ([7]; 0.5 mg/kg/day ip) was -0.5 g and the “MST (Median survival time)” value ([7]; 0.5 mg/kg/day ip) was 10.0 days. For the same compound, the T/C ([7]; 0.5 mg/kg/day ip) was 100%, the “Body weight change on day 4” value ([7]; 1 mg/kg/day ip) was -1.5 g and the “MST (Median survival time)” value ([7]; 1 mg/kg/day ip) was 10.0 days. For the same compound, the T/C ([7]; 1 mg/kg/day ip) was 100%, the “Body weight change on day 4” value ([7]; 2 mg/kg/day ip) was -2.0 g and the “MST (Median survival time)” value ([7]; 2 mg/kg/day ip) was 10.0 days. For the same compound, the T/C ([7]; 2 mg/kg/day ip) was 100%, the “Body weight change on day 4” value ([7]; 4 mg/kg/day ip) was -2.3 g and the “MST (Median survival time)” value ([7]; 4 mg/kg/day ip) was 11.0 days. For the same compound, the T/C ([7]; 4 mg/kg/day ip) was 110%, the “Body weight change on day 4” value ([7]; 8 mg/kg/day ip) was -2.5 g and the “MST (Median survival time)” value ([7]; 8 mg/kg/day ip) was 11.5 days. For the same compound, the T/C ([7]; 8 mg/kg/day ip) was 115%, the prolongation of lifespan ([7]; P388 leukemia system, ip) was “no significant prolongation of lifespan” and the “IC₅₀ Protein” value ([8]; 4 hours + 60 minutes label) was over 1.0 µg/mL. For the same compound, the “inhibition of protein synthesis” value ([8]; at 1.0 µg/ml) was “only weak inhibition”, the antimicrobial activity [9] was “weak” and the “Body weight change on day 4” value ([10]; 0.25 mg/kg/day ip) was “+0.8 g”. The “MST (Median survival time)” value ([10]; 0.25 mg/kg/day ip) was 8.0 days, the T/C ([10]; 0.25 mg/kg/day ip) was 100% and the “Body weight change on day 4” value ([10]; 0.5 mg/kg/day ip) was -0.5 g. For the same compound, the “MST (Median survival time)” value ([10]; 0.5 mg/kg/day ip) was 8.0 days, the T/C ([10]; 0.5 mg/kg/day ip) was 100% and the “Body weight change on day 4” value ([10]; 1 mg/kg/day ip) was -2.0 g. The “MST (Median survival time)” value ([10]; 1 mg/kg/day ip) was 8.0 days, the T/C ([10]; 1 mg/kg/day ip) was 100% and the “Body weight change on day 4” value ([10]; 2 mg/kg/day ip) was -2.0 g. For the same compound, the “MST (Median survival time)” value ([10]; 2 mg/kg/day ip) was 9.0 days, the T/C ([10]; 2 mg/kg/day ip) was 113% and the “Body weight change on day 4” value ([10]; 4 mg/kg/day ip) was -2.5 g. The “MST (Median survival time)” value ([10]; 4 mg/kg/day ip) was 9.5 days, the T/C ([10]; 4 mg/kg/day ip) was 119% and the “MST (Median survival time)” value ([10]; 8 mg/kg/day ip) was “Tox”. For the same compound, the T/C ([10]; 8 mg/kg/day ip) was “Tox” and the prolongation of lifespan ([10]; L1210 leukemia system, ip) was “no significant prolongation of lifespan”.
